According to ChEMBL document CHEMBL1201862, “PubChem BioAssay data set” (2004):
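Each compound was tested at five concentrations against cells in 96-well plates for 48 hours. The concentration for 50% growth inhibition is given as GI50.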 Calls of active or inactive are those of the source. Cut-off read from the data, not from the text of the source: active = GI50 up to about 1.1 µM and inactive = higher.

What was measured:
Test in all cases: NCI-60 cell line screen, 48 h
[1] = system: NCI-H522
[2] = system: UACC-62
[3] = system: SK-MEL-28
[4] = system: M14
[5] = system: SNB-19
[6] = system: SN12C
[7] = system: TK-10
[8] = system: 786-0
[9] = system: SNB-75
[10] = system: SF-268
[11] = system: NCI-H23
[12] = system: A498
[13] = system: RXF 393
[14] = system: HT-29
[15] = system: UO-31
[16] = system: ACHN
[17] = system: K562

Measured: GI50

CC1=CC(=O)NP(=O)(Oc2ccc(Cl)cc2)N1 (centres undefined)
inactive: [1] > 100 µM | [2] > 100 µM | [3] > 100 µM | [4] > 100 µM | [5] > 100 µM | [6] > 100 µM | [7] > 100 µM | [8] > 100 µM | [9] > 100 µM | [10] > 100 µM | [11] > 100 µM | [12] > 100 µM | [13] > 100 µM | [14] > 100 µM | [15] > 100 µM | [16] > 100 µM | [17] 89.3 µM

Cc1ccc(S(=O)(=O)N[C@H](C(=O)O)c2ccccc2)cc1
inactive: [1] > 100 µM | [2] > 100 µM | [3] > 100 µM | [4] > 100 µM | [5] > 100 µM | [6] > 100 µM | [7] > 100 µM | [8] > 100 µM | [9] > 100 µM | [10] > 100 µM | [11] > 100 µM | [12] > 100 µM | [13] > 100 µM | [14] > 100 µM | [15] > 100 µM | [16] > 100 µM | [17] > 100 µM

C/C(=N\N(c1ccccc1)c1ccccc1)c1c(O)cc(C)oc1=O
inactive: [1] > 100 µM | [2] 54 µM | [3] > 100 µM | [4] > 100 µM | [5] > 100 µM | [6] > 100 µM | [7] > 100 µM | [8] > 100 µM | [9] > 100 µM | [10] > 100 µM | [11] 40.1 µM | [12] > 100 µM | [14] > 100 µM | [15] 25.7 µM | [16] > 100 µM | [17] 62.7 µM

CC1=C(/C(C)=N/NS(=O)(=O)c2ccc(C)cc2)Sc2ccccc2N1
inactive: [1] 46.7 µM | [2] 32.9 µM | [3] > 100 µM | [4] > 100 µM | [5] > 100 µM | [6] > 100 µM | [7] > 100 µM | [8] > 100 µM | [9] 75.7 µM | [10] > 100 µM | [11] 89.3 µM | [12] > 100 µM | [13] > 100 µM | [14] 98.6 µM | [15] 57 µM | [16] > 100 µM | [17] 37.7 µM

O=[N+]([O-])c1cccc(C2SCc3nc4ccccc4n32)c1 (centres undefined)
inactive: [2] 34.3 µM | [3] > 100 µM | [5] > 100 µM | [6] 97.3 µM | [7] > 100 µM | [8] > 100 µM | [10] > 100 µM | [11] 64.4 µM | [12] 77.6 µM | [13] 73.5 µM | [14] > 100 µM | [15] 31.6 µM | [16] 62.7 µM | [17] 49.5 µM

CC1=C(C(=O)NCc2ccccc2)C(c2ccc([N+](=O)[O-])cc2)C(C(=O)NCc2ccccc2)=C(C)N1
inactive: [1] 28.5 µM | [2] 16.8 µM | [3] 37.7 µM | [4] 21.8 µM | [5] 65.2 µM | [6] 76 µM | [7] 42.8 µM | [8] 44.2 µM | [9] 40.4 µM | [10] 50.7 µM | [11] 39.7 µM | [12] 86.1 µM | [13] 31.6 µM | [14] 18.1 µM | [15] 20.6 µM | [16] 27.4 µM | [17] 31.2 µM

CCOC(=O)CCC(NC(=O)c1ccc(NC(OC)c2nc3cc(C(F)(F)F)ccc3nc2-c2ccccc2)cc1)C(=O)OCC (centres undefined)
inactive: [1] 12.3 µM | [2] 16.9 µM | [3] 17.3 µM | [4] 15.4 µM | [5] 14.4 µM | [6] 14.5 µM | [7] 21 µM | [8] 12.7 µM | [9] 19.9 µM | [10] 16.6 µM | [11] 16 µM | [12] 17.3 µM | [13] 13.9 µM | [14] 7.93 µM | [15] 13.6 µM | [16] 16.1 µM | [17] 2.89 µM

O=C1C(c2ccccc2)=C(c2ccccc2)[C@H](c2ccccc2)[C@]1(Cc1nnn(-c2ccc([N+](=O)[O-])cc2)c1N1CCOCC1)c1ccccc1
inactive: [2] > 37.5 µM | [3] > 37.5 µM | [4] > 37.5 µM | [5] 35.9 µM | [6] > 37.5 µM | [7] > 37.5 µM | [8] > 37.5 µM | [9] > 37.5 µM | [11] > 37.5 µM | [12] > 37.5 µM | [13] 9.62 µM | [14] > 37.5 µM | [16] 14.5 µM | [17] > 37.5 µM

N#CC1C2CCC3(CC2CCN1C(=O)c1ccccc1)OCCO3 (centres undefined)
inactive: [2] > 100 µM | [3] > 100 µM | [4] > 100 µM | [5] > 100 µM | [6] > 100 µM | [7] > 100 µM | [8] > 100 µM | [9] > 100 µM | [10] > 100 µM | [11] > 100 µM | [12] > 100 µM | [13] > 100 µM | [14] > 100 µM | [15] > 100 µM | [16] > 100 µM | [17] > 100 µM

Cc1cc(C(=O)NCCN(C)C)c2nc3ccccc3nc2c1
inactive: [1] 16.6 µM | [2] 6.32 µM | [3] 5.05 µM | [4] 4.98 µM | [5] 6.79 µM | [6] 3.45 µM | [7] 4.42 µM | [8] 7.8 µM | [9] 4.52 µM | [11] 5.27 µM | [12] 3.92 µM | [13] 5.37 µM | [14] 2.67 µM | [16] 2.22 µM | [17] 2.05 µM

N#CC(NNC(=O)Cc1ccccc1)c1ccc([N+](=O)[O-])cc1 (centres undefined)
inactive: [1] > 100 µM | [2] > 100 µM | [3] > 100 µM | [4] > 100 µM | [6] > 100 µM | [7] > 100 µM | [8] > 100 µM | [9] 65.6 µM | [10] > 100 µM | [11] > 100 µM | [13] > 100 µM | [14] > 100 µM | [15] > 100 µM | [16] > 100 µM | [17] > 100 µM

CCCCCCCCCCCC(=O)OCC1OC(n2cc(F)c(=O)[nH]c2=O)C(NC(=O)OCc2ccccc2)C(O)C1O (centres undefined)
inactive: [1] 14.5 µM | [2] 19.3 µM | [3] 19.1 µM | [4] 19.6 µM | [5] 28.5 µM | [6] 18.5 µM | [7] 38.8 µM | [8] 24 µM | [9] 11.1 µM | [10] 39.5 µM | [11] 35.3 µM | [12] 20.1 µM | [13] 27.2 µM | [14] 16.1 µM | [15] 30.3 µM | [16] 57.4 µM | [17] 21.7 µM

Cc1cccc(C(=O)O)c1C(=O)c1cccc2ccccc12
inactive: [1] > 100 µM | [2] > 100 µM | [3] > 100 µM | [4] > 100 µM | [5] > 100 µM | [6] > 100 µM | [7] > 100 µM | [8] > 100 µM | [9] > 100 µM | [10] > 100 µM | [11] > 100 µM | [12] 88.3 µM | [13] > 100 µM | [14] > 100 µM | [15] > 100 µM | [16] > 100 µM | [17] 65 µM

CC(C)C(/C=C/c1ccccc1)=N\NC(=O)N/N=C(/C=C/c1ccccc1)C(C)C
inactive: [1] 17.1 µM | [2] 56.9 µM | [3] 74 µM | [4] 39.4 µM | [5] 37.7 µM | [6] 17.3 µM | [7] 33.8 µM | [8] 18.9 µM | [9] 25.8 µM | [10] 48 µM | [11] 53.7 µM | [14] 26.5 µM | [15] 14.7 µM | [16] 26.9 µM | [17] 21.2 µM

O=C(CN(Cc1ccccc1)Cc1ccccc1)N1CCc2c([nH]c3ccccc23)C1c1cccnc1 (centres undefined)
inactive: [1] 4.8 µM | [2] 11.1 µM | [3] 21.2 µM | [4] 3.66 µM | [5] 19.5 µM | [6] 2.71 µM | [7] 27.5 µM | [8] 5.87 µM | [9] 7.36 µM | [10] 9.51 µM | [11] 5.41 µM | [12] 16.7 µM | [14] 5.57 µM | [15] 2.63 µM | [16] 7.64 µM | [17] 3.17 µM

Cc1cccc(CC(C)(C)C)c1NC(=O)C(=O)C(C(=O)c1ccc2ccccc2c1)C1OC(=O)c2ccccc21 (centres undefined)
inactive: [1] 9.53 µM | [2] 7.52 µM | [3] 5.58 µM | [4] 27.2 µM | [5] 10.6 µM | [6] 15.8 µM | [8] 7.23 µM | [10] 8.53 µM | [11] 6.35 µM | [12] 13.2 µM | [13] 3.4 µM | [14] 20.2 µM | [15] 16 µM | [16] 18 µM

COc1cc2c(cc1OC)[C@]1(O)C(=O)c3ccc4c(c3O[C@@H]1CO2)C[C@H](C(C)(C)O)O4
inactive: [1] 5.86 µM | [2] > 100 µM | [3] > 100 µM | [4] > 100 µM | [5] > 100 µM | [7] > 100 µM | [8] > 100 µM | [9] 22 µM | [11] 2.65 µM | [12] 45.8 µM | [13] 8.3 µM | [14] > 100 µM | [15] 7.29 µM | [16] 15.1 µM | [17] 17.1 µM
